Laboratory results as given in US12486302B2, “Somatostatin receptor antagonist compounds and methods of using the same” (CDRD VENTURES INC., priority 2016, dated 2025).
Where a SMILES comes first, the peptide text is derived from it. Bridges are numbered along the chain shown (N, C = ends). [ ]: non-standard residue; d: D form. dPhe(4-CONH2) = NC(=O)c1ccc(C[C@@H](N)C(=O)O)cc1; Phe(4-Cl) = N[C@@H](Cc1ccc(Cl)cc1)C(=O)O; Lys(Me) = CNCCCC[C@H](N)C(=O)O

Columns and labels:
[1] = molecular target: somatostatin type 2 (SSTR2) receptors (Homo sapiens, UniProt P30874); assay: PathHunter β-Arrestin assay, antagonist mode, SSTR2; format: cell-based; conditions: agonist challenge at EC80
Sequence of somatostatin type 2 (SSTR2) receptors (P30874 whole entry): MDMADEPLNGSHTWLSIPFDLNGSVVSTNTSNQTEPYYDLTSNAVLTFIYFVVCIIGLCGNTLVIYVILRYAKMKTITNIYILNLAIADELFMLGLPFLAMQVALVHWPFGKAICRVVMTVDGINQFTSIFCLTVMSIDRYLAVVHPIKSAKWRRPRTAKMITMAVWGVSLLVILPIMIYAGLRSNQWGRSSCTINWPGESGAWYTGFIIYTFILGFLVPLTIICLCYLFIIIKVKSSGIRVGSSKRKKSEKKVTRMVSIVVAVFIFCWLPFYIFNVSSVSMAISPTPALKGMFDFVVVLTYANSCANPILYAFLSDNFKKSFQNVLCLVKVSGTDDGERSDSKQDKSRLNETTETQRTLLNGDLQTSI
In short: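 Cells co-expressing PK-tagged human receptor and EA-β-Arrestin were pre-incubated with compound, then challenged with agonist at EC80. β-Gal complementation read by chemiluminescence; % inhibition normalized to EC80 and vehicle controls at 10 concentrations (log 3 steps from 1 μM down to 5e-5 μM), fitted for IC50.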

[2] = molecular target: SSTR4 (Homo sapiens, UniProt P31391); assay: PathHunter β-Arrestin assay, antagonist mode, SSTR4; format: cell-based; conditions: agonist challenge at EC80
Sequence of SSTR4 (P31391 whole entry, the tested form may be a part): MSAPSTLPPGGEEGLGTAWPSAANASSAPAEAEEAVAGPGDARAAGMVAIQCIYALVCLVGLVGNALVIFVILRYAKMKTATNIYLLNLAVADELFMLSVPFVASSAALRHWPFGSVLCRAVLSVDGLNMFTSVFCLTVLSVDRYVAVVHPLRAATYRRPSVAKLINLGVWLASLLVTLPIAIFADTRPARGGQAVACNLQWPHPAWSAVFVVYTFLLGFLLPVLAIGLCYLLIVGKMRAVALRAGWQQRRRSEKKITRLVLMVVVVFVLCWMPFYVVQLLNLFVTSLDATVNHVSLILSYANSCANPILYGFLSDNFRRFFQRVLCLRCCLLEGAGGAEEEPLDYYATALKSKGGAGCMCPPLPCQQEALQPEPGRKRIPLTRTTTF
Procedure: (§1) The PathHunter® β-Arrestin assay monitors the activation of a GPCR in a homogenous, non-imaging assay format using a technology developed by DiscoveRx called Enzyme Fragment Complementation (EFC) with β-galactosidase (β-Gal) as the functional reporter. […] EA is fused to β-Arrestin and […] is fused to the GPCR of interest. When the GPCR is activated and β-Arrestin is recruited to the receptor, ED and EA complementation occurs, restoring β-Gal activity which is measured using chemiluminescent PathHunter® Detection Reagents. For antagonist determination, cells were pre-incubated with the compounds followed by agonist challenge at the EC80 concentration. Data was normalized to the maximal and minimal response observed in the presence of EC80 ligand and vehicle. Compound activity was analyzed using CBIS data analysis suite ChemInnovation, CA). Percentage inhibition was calculated using the following formula: % Inhibition=100%×(1−(mean signal of test sample-mean signal of vehicle control)/(mean signal of EC80 control-mean signal of vehicle control)). Percentage inhibition was calculated at 10 concentrations in steps on a Log 3 scale ranging from […] to 5e-5 μM. The results were plotted for IC50 calculation.

[3] = molecular target: SSTR1 (Homo sapiens, UniProt P30872); assay: PathHunter β-Arrestin assay, antagonist mode, SSTR1; format: cell-based; conditions: agonist challenge at EC80
Sequence of SSTR1 (P30872 whole entry): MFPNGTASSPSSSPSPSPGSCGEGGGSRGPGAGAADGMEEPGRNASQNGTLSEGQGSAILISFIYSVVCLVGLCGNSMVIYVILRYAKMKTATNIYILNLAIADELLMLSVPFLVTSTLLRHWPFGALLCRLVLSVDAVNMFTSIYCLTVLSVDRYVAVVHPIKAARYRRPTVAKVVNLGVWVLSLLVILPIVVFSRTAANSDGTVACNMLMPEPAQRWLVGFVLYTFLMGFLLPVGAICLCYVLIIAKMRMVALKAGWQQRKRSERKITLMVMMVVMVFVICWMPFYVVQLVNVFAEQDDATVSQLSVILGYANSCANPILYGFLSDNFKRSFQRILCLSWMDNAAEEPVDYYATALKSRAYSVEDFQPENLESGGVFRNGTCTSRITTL
Procedure: as §1

[4] = test system: STZ diabetic Sprague Dawley rats; assay: Hypoglycemic Challenge #1 (10 U/kg insulin) in STZ diabetic rats; format: in vivo, rat
Procedure: (§2) Male Sprague Dawley rats (initial weight 150-175 g) were purchased from Charles River Laboratories (Montreal, QC, Canada). Rats were housed in the York University Vivarium in a 12-hour light dark cycle. All animals were fed a standard rodent chow diet (14% fat, 54% carbohydrates, […] & 3.0 calories/g of food) and water ad libitum. After a minimum of one week of acclimation, all animals received an intraperitoneal injection of streptozotocin (STZ) (Sigma) at a dose of 65 mg/kg body weight. After STZ injection, animals were provided with sugar water (5% solution) overnight. Any animals whose blood glucose was not greater than 10 mM within 2 days of STZ injection received a second injection.
One week after induction of diabetes, insulin treatment was initiated to maintain blood glucose values within a reasonable glucose controlled range in the fasted state (8-20 mM). Insulin pellets (LinChin, Toronto, ON, Canada) were implanted subcutaneously in any rat with blood glucose over 20 mM. Briefly, animals were anesthetized via inhaled isoflurane and pellets were implanted subcutaneously within the scapular region. One week later animals underwent their first hypoglycemic challenge (Hypoglycemic Challenge #1), followed by a second hypoglycemic challenge (Hypoglycemic Challenge #2) the following week (see below). Throughout the study, daily animals checks were conducted to assess body weight, blood glucose as well as food/calorie consumption.
Animals were divided into groups and received Compound 4, or Compound 24 or a corresponding dose of vehicle. Compounds were given 1 hour prior to commencement of the hypoglycemic challenge. On the morning of the hypoglycemic challenge, food was removed from the cage and a plasma sample was collected as baseline (prior to compound/vehicle administration), one-hour post drug/vehicle administration and at set points throughout the challenges.
For Hypoglycemic Challenge #1, hypoglycemia was induced via subcutaneous administration of a bolus of insulin (10U Novo Rapid insulin/kg body weight). Blood glucose was assessed every 10 minutes via saphenous vein puncture. Additionally, plasma was collected from the saphenous vein every 20 minutes, until 100-minutes post insulin administration. An additional plasma sample was collected 4-hours post drug administration (3 hours post insulin bolus) for mass spectrometry analysis of the compounds in plasma.

[5] = molecular target: SSTR5 (Homo sapiens, UniProt P35346); assay: PathHunter β-Arrestin assay, antagonist mode, SSTR5; format: cell-based; conditions: agonist challenge at EC80
Sequence of SSTR5 (P35346 whole entry): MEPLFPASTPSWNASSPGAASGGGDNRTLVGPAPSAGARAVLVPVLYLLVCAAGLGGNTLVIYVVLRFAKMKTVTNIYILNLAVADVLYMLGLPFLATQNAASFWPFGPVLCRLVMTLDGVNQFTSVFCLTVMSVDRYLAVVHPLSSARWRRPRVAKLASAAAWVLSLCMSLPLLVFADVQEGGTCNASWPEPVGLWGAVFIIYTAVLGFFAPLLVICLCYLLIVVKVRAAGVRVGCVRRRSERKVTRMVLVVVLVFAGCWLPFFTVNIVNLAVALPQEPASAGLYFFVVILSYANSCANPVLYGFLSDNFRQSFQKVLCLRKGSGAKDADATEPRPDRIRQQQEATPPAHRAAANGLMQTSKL
Procedure: as §1

[6] = molecular target: SSTR3 (Homo sapiens, UniProt P32745); assay: PathHunter β-Arrestin assay, antagonist mode, SSTR3; format: cell-based; conditions: agonist challenge at EC80
Sequence of SSTR3 (P32745 whole entry): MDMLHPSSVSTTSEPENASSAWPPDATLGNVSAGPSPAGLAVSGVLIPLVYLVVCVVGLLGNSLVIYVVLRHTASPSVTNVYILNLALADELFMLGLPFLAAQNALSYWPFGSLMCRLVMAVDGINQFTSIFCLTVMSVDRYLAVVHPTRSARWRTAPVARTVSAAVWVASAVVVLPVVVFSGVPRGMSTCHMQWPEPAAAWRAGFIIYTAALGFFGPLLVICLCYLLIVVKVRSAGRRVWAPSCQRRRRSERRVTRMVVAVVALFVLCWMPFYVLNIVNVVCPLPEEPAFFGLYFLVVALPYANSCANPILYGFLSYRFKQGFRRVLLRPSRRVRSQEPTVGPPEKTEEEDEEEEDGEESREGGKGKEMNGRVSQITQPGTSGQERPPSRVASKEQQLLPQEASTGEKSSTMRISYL
Procedure: as §1

[7] = test system: STZ diabetic Sprague Dawley rats; assay: Hypoglycemic Challenge #2 (20 U/kg insulin) in STZ diabetic rats; format: in vivo, rat; conditions: 20 U/kg insulin challenge; target BG 2.5 mM; N=9
Procedure: as §2
One week after induction of diabetes, insulin treatment was initiated to maintain blood glucose values within a reasonable glucose controlled range in the fasted state (8-20 mM). Insulin pellets (LinChin, Toronto, ON, Canada) were implanted subcutaneously in any rat with blood glucose over 20 mM. […]
One week after the first hypoglycemia challenge, a second similar hypoglycemic challenge (Hypoglycemia Challenge #2) was conducted; however this time a higher dose of insulin was given to insure that severe hypoglycemia developed (20U Novo Rapid/kg body weight). Blood glucose was monitored, every 5-10 min, via saphenous vein puncture. […]

In the case of `CNCCCC[C@@H]1NC(=O)[C@@H](Cc2ccc(C(N)=O)cc2)NC(=O)[C@H](Cc2ccc(O)cc2)NC(=O)[C@H](NC(=O)[C@@H](N)Cc2ccc(Cl)cc2)CSSC[C@@H](C(=O)N[C@H](Cc2ccc(O)cc2)C(N)=O)NC(=O)[C@H]([C@@H](C)O)NC1=O` [Compound 24, H-Cpa-cyclo[D-Cys-Tyr-D-Phe(4-carbamoyl)-Lys(N^ε-Me)-Thr-Cys]-D-Tyr-NH2] (H-[Phe(4-Cl)][dC]Y[dPhe(4-CONH2)][Lys(Me)]TC[dY]-NH2; disulfide 2-7), the IC50 [1] is reported as 0.96 nM, the IC50 [2] is reported as greater than 1000 nM and the IC50 [3] is reported as greater than 1000 nM. The “period after insulin with significantly higher BG values compared with Vehicle Control” value ([4]; 2-Way ANOVA, insulin 10 U/kg, N=9) was 40 min, the “time at which rats first became hypoglycemic (BG threshold 3.9 mM)” value ([4]; 2 of 9 rats, after insulin 10 U/kg) was 40 min and the “average time to onset of hypoglycemia (BG first reached 3.9 mM)” value ([4]; after 10 U/kg insulin dose, interpolated from BG curves, N=9) was 97 min. For the same molecule, the “incidence of severe hypoglycemia (BG threshold 1.9 mM)” value ([4]; after 150 minutes) was 44%, the “AUC of blood glucose below the 3.9 mM threshold (extent of hypoglycemia)” value ([4]; compound at t=-60 min, insulin 10 U/kg at t=0, N=9) was 55 mM·min and the “number of rats that never became hypoglycemic” value ([4]; of 9 rats, BG threshold 3.9 mM) was 1. For the same molecule, the peak glucagon value ([4]; saphenous blood, 0 to 100 minutes after insulin dosing, N=9) was 175 pg/mL, the IC50 [5] was greater than 1000 nM and the IC50 [6] was greater than 1000 nM. For the same molecule, the “average portal blood glucagon concentration at hypoglycemia” value [7] was 801 pg/mL.
